Measurements as given in patent publication US20200113882A1, “Use of 4-Aminopyridine to Improve Neuro-Cognitive and/or Neuro-Psychiatric Impairment in Patients with Demyelinating and Other Nervous System Conditions” (priority 2009, published 2020).

Key:
[1] = adverse events in clinical studies; format: in vivo, human; settings: controlled clinical studies
Description: In controlled clinical studies involving the use of fampridine, the most frequent adverse events by body system occurred in the nervous system, “body as a whole”, and digestive system.
While an increased incidence of such events appears to be moderately dose-related, the susceptibility of individuals is quite variable. The potential for lowering seizure threshold in people with MS appears to be more significant than for people with spinal cord injury, which may result from interaction of the channel-blocking properties of the drug with MS brain pathology in certain individuals.

[2] = system: cognitive function in MS patients; settings: prior study; cited from earlier work
[3] = rat pharmacokinetics after i.v. and p.o. 2 mg/kg (M 2001-03); settings: rats, single p.o. 2 mg/kg
[4] = single- and repeated-dose toxicity studies in animals; format: in vivo
Experimental: In single- and repeated-dose toxicity studies, the dosing regimen greatly affected the rate of mortality and incidence of clinical signs in all species studied (with the possible exception of the mouse). In general, higher mortality rates and greater incidences of adverse clinical signs were noted when 4-aminopyridine was administered in a single large dose as compared to when the same total dose was given as two, three, or four equally divided sub-doses. Toxic responses to orally administered 4-aminopyridine were rapid in onset, most often occurring within the first 2 hours post-dose.
These clinical signs were not unexpected and represent exaggerated pharmacology of 4-aminopyridine.

[5] = system: normal adult myelinated axons; settings: cited from earlier work
[6] = 14C-4-aminopyridine single oral dose 1 mg/kg in rats (HWI 6379-101): absorption, tissue distribution
Experimental: (§1) Studies were performed in rats and dogs using ^14C-labeled 4-aminopyridine (1 mg/kg) given as a single oral gavage dose in solution.
In a single-dose study, rats were administered ^14C-labeled 4-aminopyridine (1 mg/kg) p.o. Three animals per time point were sacrificed 1, 3, 8, and 24 hours post-dose. Blood was collected and tissues were excised for determination of radioactivity.

[7] = 14C-4-aminopyridine single oral dose 1 mg/kg in dogs (HWI 6379-102): absorption; format: in vivo, dog; settings: equal mg/kg doses, 1 mg/kg oral
Experimental: as §1

[8] = rats, 1 mg/kg p.o., one hour post-dose

Compound	most common nervous system adverse events [1]	most frequently reported digestive system adverse event [1]	benefit of cognitive function [2]	Vdss difference between males and females adjusted for body weight [3] [%]	clinical signs ([4]; after large single doses or repeated lower doses, all species studied)	onset of toxic responses post-dose ([4]; orally administered, most often) [h]	concentrations that tend to cause gradual depolarization of the axon resting potential ([5]; (94.1 μg/mL))	concentrations at which action potential shows little or no sensitivity ([5]; normal adult myelinated axons (9.4 μg/mL))	time to peak plasma levels ([6]; both, rat, in vivo, po, 1 mg/kg) [h]	radioactive dose in carcass ([6]; rats, 1 mg/kg p.o., 3 hours post-dose) [%]	dose accounted for in total (radioactivity) [6, 8] [%]	radioactivity in blood, percent of dose [6, 8] [%]	radioactivity in carcass [6, 8] [%]	radioactivity in kidney, percent of dose [6, 8] [%]	radioactivity in liver, percent of dose [6, 8] [%]	Cmax and AUC in the dog relative to the rat [7]
Nc1ccncc1 [4-aminopyridine]	Dizziness, insomnia, paresthesia, pain, headache and asthenia	nausea	did not show benefit	2	tremors, convulsions, ataxia, dyspnea, dilated pupils, prostration, abnormal vocalization, increased respiration, excess salivation, gait abnormalities, and hyper- and hypo-excitability	≤ 2	above 1 mM	below 100 μM	–	–	–	–	–	–	–	–
Nc1ccncc1 [14C-4-Aminopyridine]	–	–	–	–	–	–	–	–	0.5 to 1	15.4	58.3	0.7	51	1.6	2.6	approximately four-fold higher
